Columns and labels:
Homo sapiens [1] = species on record: Homo sapiens; test: Binding affinity to CBP KIX domain N627C mutant (unknown origin) after 1 hr by Fluorescent polarization assay
Homo sapiens [2] = species on record: Homo sapiens; test: Displacement of fluorescent-labelled MLL from CBP KIX domain N627C mutant (unknown origin) at 250 uM after 1 hr by Fluorescent polarization assay
Homo sapiens [3] = species on record: Homo sapiens; test: Binding affinity to CBP KIX domain H602C mutant (unknown origin) after 1 hr by Fluorescent polarization assay
Homo sapiens [4] = species on record: Homo sapiens; test: Displacement of fluorescent-labelled pKID from CBP KIX domain H602C mutant (unknown origin) after 1 hr by Fluorescent polarization assay; conditions: concentration not given here
Homo sapiens [5] = species on record: Homo sapiens; test: Binding affinity to CBP KIX domain H602C mutant (unknown origin) assessed as increase in binding affinity constant for c-Myb by fluorescence polarization tethering assay
Homo sapiens [6] = species on record: Homo sapiens; test: Binding affinity to CBP KIX domain H602C mutant (unknown origin) assessed as increase in binding affinity constant for phosphorylated KID by fluorescence polarization tethering assay
Homo sapiens [7] = species on record: Homo sapiens; test: Binding affinity to CBP KIX domain H602C mutant (unknown origin) assessed as increase in binding affinity constant for MLL by fluorescence polarization tethering assay
[8] = (§1) Displacement of fluorescent-labelled MLL from CBP KIX domain N627C mutant (unknown origin) after 1 hr by Fluorescent polarization assay; set-up: species or system Homo sapiens
Homo sapiens [9] = species on record: Homo sapiens; test: as §1

| SMILES | Activity (Homo sapiens [1]) | inhibition (Homo sapiens [2]) | Activity (Homo sapiens [3]) | inhibition (Homo sapiens [4]) | fold change (FC) (Homo sapiens [5]) | fold change (FC) (Homo sapiens [6]) | fold change (FC) (Homo sapiens [7]) | IC50 [8] | inhibition (Homo sapiens [9]) |
| --- | --- | --- | --- | --- | --- | --- | --- | --- | --- |
| COc1ccc2cc([C@H](C)C(=O)NCCSSCCN)ccc2c1 | 36% | 32% |  |  |  |  |  |  |  |
| CN(C)CCSSCCNC(=O)C1CCN(C(=O)c2ccccc2Nc2ccccc2)CC1 |  |  | 15% | 22% |  |  |  |  |  |
| CC(=O)Nc1ccc(Cl)c(NC(=O)NCCSSCCN(C)C)c1 |  |  | 71% | 24% | 9 | 6.5 | 9 |  |  |
| CN(C)CCSSCCC(=O)N1CCC(O)(c2ccc(Cl)c(C(F)(F)F)c2)CC1 | 67% | 44% |  |  |  |  |  | 68 µM | Dose-dependent effect |
